Usually MIC stands for the smallest concentration in the dilution series that meets the test's criterion for growth inhibition.

Experiment [1] has as its system Staphylococcus aureus. The experiment in a line: Antibacterial activity against Staphylococcus aureus SA1199 at 201.4 to 402.8 uM after 18 hrs by CLSI method. Type of experiment: functional, organism-based.
Experiment [2] deals with Staphylococcus aureus. As to the kind of experiment: Potentiation of berberin induced antibacterial activity against Staphylococcus aureus SA1199 assessed as berberin MIC at 201.4 uM (reference value: 238 microM). It is filed as functional.
Experiment [3] deals with Staphylococcus aureus. The experiment in a line: Potentiation of berberin induced antibacterial activity against Staphylococcus aureus SA1199 assessed as berberin MIC at 200 uM (reference value: 238 microM). It is filed as functional.

The structures appear in SMILES notation. Activity calls are given as the source filed them.

`COc1ccc(-c2oc3c(C)c(OC)c(C)c(OC)c3c(=O)c2O)cc1O`: the result in the experiment with Staphylococcus aureus [1] was inactive. In addition, in the experiment with Staphylococcus aureus [2], the MIC turned out to be 179 µM. As to `O=C(/C=C/C=C/c1ccc2c(c1)OCO2)N1CCCCC1` [PIPERINE], in the experiment with Staphylococcus aureus [3], the MIC was found to be 119 µM.

These data come from ChEMBL document CHEMBL4138144, “Biochemometrics to Identify Synergists and Additives from Botanical Medicines: A Case Study with Hydrastis canadensis (Goldenseal)” (J Nat Prod, 2018).
